Test results from patent US7414042B2, “Method and composition for selectively inhibiting melanoma” (The Board of Trustees of The University of Illinois, priority 1995, dated 2008).
Converted amounts (≈) assume the structure as drawn. “Also recorded” adds a separate entry of the source.

Columns and labels:
MEL-8 melanoma cell line = assay: Cytotoxicity of betulinic acid derivatives; assay type: cell-based, human; conditions: Tables 2-6
Experimental: (§1) The plates were incubated for three days. […] Dose response studies were performed to generate ED50 values.

LOX melanoma cell line = assay: Cytotoxicity of betulinic acid derivatives; assay type: cell-based, human; conditions: Tables 2-6
Experimental: as §1

MEL-6 melanoma cell line = assay: Cytotoxicity of betulinic acid derivatives; assay type: cell-based, human; conditions: Tables 2-6
Experimental: as §1

[1] = system: MALE-3M melanoma cell line; assay: Cytotoxicity of betulinic acid derivatives; assay type: cell-based, human; conditions: Tables 2-6
Experimental: as §1

Solubility in water = assay type: physicochemical; conditions: listed as betulinic acid
[2] = 200 and 400 mg/kg doses; cited from earlier work
P-388 murine lymphocyte = conditions: tests conducted by the National Cancer Institute; cited from earlier work
U373 (glioma) = assay: Cytotoxicity against cultured human cancer cells (SRB); assay type: cell-based; conditions: Homo sapiens, U373 MG, 72 h; three days incubation, SRB; read-out: ED50 U373
Experimental: as §1

LNCaP (prostate) = assay: as above; assay type: cell-based; conditions: Homo sapiens, LNCaP, 72 h; three days incubation, SRB; read-out: ED50 LNCaP
Experimental: as §1

[3] = system: KB (human oral epidermoid carcinoma); assay: as above; assay type: cell-based
Experimental: as §1

ZR-75-1 (breast) = assay: as above; assay type: cell-based; conditions: Homo sapiens, ZR-75-1, 72 h; three days incubation, SRB; read-out: ED50 ZR 75-1
Experimental: as §1

HT-1080 (sarcoma) = assay: as above; assay type: cell-based; conditions: Homo sapiens, HT-1080, 72 h, three days incubation, read-out: ED50 HT-1080
Experimental: as §1

A431 (squamous cells) = assay: as above; assay type: cell-based; conditions: Homo sapiens, A-431, 72 h; three days incubation, SRB; read-out: ED50 A431
Experimental: as §1

LU-1 (lung) = assay: as above; assay type: cell-based; conditions: Homo sapiens, 72 h, three days incubation, read-out: ED50 LU-1
Experimental: as §1

COL-2 (colon) = assay: as above; assay type: cell-based; conditions: Homo sapiens, Col2, 72 h; three days incubation, SRB; read-out: ED50 COL-2
Experimental: as §1

BC-1 (breast) = assay: as above; assay type: cell-based; conditions: Homo sapiens, 72 h; three days incubation, SRB; read-out: ED50 BC-1
Experimental: as §1

MEL-1 = assay: Dose-response study, additional human melanoma cell line; assay type: cell-based
Experimental: (§2) Moreover, the cytotoxic response mediated by betulinic acid is not exclusively limited to the MEL-2 melanoma cell line.
as §1

MEL-3 = assay: as above; assay type: cell-based
Experimental: as §2, §1

MEL-4 = assay: as above; assay type: cell-based
Experimental: as §2, §1

[4] = system: human melanoma cells (MEL-2); assay: In vivo activity against unestablished MEL-2 tumors in athymic mice; design: species or system athymic (nude) mice
Experimental: To test the in vivo ability of betulinic acid to serve as an antineoplastic agent against malignant melanoma, a series of studies was performed with athymic (nude) mice injected subcutaneously with human melanoma cells (MEL-2). The initial study investigated the activity of betulinic acid against unestablished tumors. Treatment with betulinic acid began on day 1, i.e., 24 hours, following tumor cell injection. […] Such a discovery is important for individuals who are predisposed to melanoma due to hereditary or environmental factors.
In particular, the data plotted in FIG. 1 was derived from experiments wherein four week old athymic mice were injected subcutaneously in the right flank with 3.0×10^8 UISO MEL-2 cells. UISO MEL-2 is a cell line derived from metastatic melanoma from human pleural fluid. Drug treatment was initiated on the day following tumor cell injection and continued every fourth day for a total of six doses. Four control animals received 0.5 ml intraperitoneal (IP) of PVP control solution, while treated animals (4 per group) received 50, 250 or 500 mg/kg/dose IP betulinic acid/PVP in deionized H2O. Betulinic acid was coprecipitated with PVP to increase solubility and bioavailability. The mice were weighed, and the tumors measured with a micrometer every other day throughout the study. […]

[5] = system: Walker 256 murine carcinosarcoma; conditions: cited from earlier work
MEL-2 (melanoma) = assay: Cytotoxicity against cultured human melanoma cells (SRB); assay type: cell-based
Experimental: as §1

[6] = system: human melanoma cells (MEL-2); assay: In vivo activity against established MEL-2 melanomas in athymic mice; conditions: treatment from day 13, IP every third day; betulinic acid/PVP 250 mg/kg/dose, DTIC 4 mg/kg/dose
Experimental: Next, in vivo testing of betulinic acid was performed on established melanomas. In this study, treatment was withheld until day 13, by which time a palpable tumor mass was present in all mice.
In particular, with respect to FIG. 2, four-week-old athymic mice were injected with 5×10^8 MEL-2 cells subcutaneously in the right flank. Four treatment groups of five mice each were studied. In one group, the mice received 250 mg/kg/dose of IP betulinic acid/PVP every third day for six total doses initiated the day following tumor cell injection. The control group received 0.5 ml IP saline. A DTIC treatment group received 4 mg/kg/dose IP DTIC every third day from day 13 to day 28 of the study. The betulinic acid treatment group received 250 mg/kg/dose IP betulinic acid/PVP every third day from day 13 to day 27. The control and DTIC-treated mice were sacrificed and autopsied on day 36 due to their large tumor burden. The remaining mice were sacrificed and autopsied on day 41.

human lymphocytes = assay: Formation of the 50 Kbp DNA fragment in normal cells; assay type: cell-based; conditions: 2 and 20 μg/ml, time-course

C=C(C)[C@@H]1CC[C@]2(C(=O)O)CC[C@]3(C)[C@H](CC[C@@H]4[C@@]5(C)CC[C@H](O)C(C)(C)[C@@H]5CC[C@]43C)[C@@H]12 [Compound 10, 3β-hydroxy-lup-20(29)-ene-28-oic acid]
ED50 (Std. Dev.) MEL-8 (MEL-8 melanoma cell line): 1.0 (0.3) μg/mL
ED50 (Std. Dev.) LOX (LOX melanoma cell line): >20 µg/mL
ED50 (Std. Dev.) MEL-6 (MEL-6 melanoma cell line): 13.2 (1.5) μg/mL
ED50 (Std. Dev.) MALE-3M [1]: 17.6 (0.5) μg/mL
solubility in water (Solubility in water): poor solubility in water; also recorded: low water solubility
activity in Hippocratic screen [2]: inactive
antitumor activity, P-388 (P-388 murine lymphocyte): activity was not supported
IC50 (U373 (glioma)): > 20 µg/mL
IC50 (LNCaP (prostate)): > 20 µg/mL
IC50 ([3]; Homo sapiens, 72 h, three days incubation, SRB, Table 1, read-out: ED50 KB): > 20 µg/mL
ED50 (Std. Dev.) KB ([3]; derivatives, Tables 2-6): >20 µg/mL
IC50 (ZR-75-1 (breast)): > 20 µg/mL
IC50 (HT-1080 (sarcoma)): > 20 µg/mL
IC50 (A431 (squamous cells)): > 20 µg/mL
IC50 (LU-1 (lung)): > 20 µg/mL
IC50 (COL-2 (colon)): > 20 µg/mL
IC50 (BC-1 (breast)): > 20 µg/mL
ED50 MEL-1 (MEL-1): 1.1 µg/mL (≈ 2.41 µM)
ED50 MEL-3 (MEL-3): 3.3 µg/mL (≈ 7.23 µM)
ED50 MEL-4 (MEL-4): 4.8 µg/mL (≈ 10.5 µM)
tumor development, MEL-2, treatment from the day following cell injection (FIG. 2) ([4]; 250 mg/kg/dose IP betulinic acid/PVP every third day, six doses, p=0.0001): significantly inhibited tumor development
inhibition of tumor growth, nonestablished MEL-2 tumors (FIG. 1) ([4]; 50, 250, 500 mg/kg/dose IP as betulinic acid/PVP, every fourth day, six doses from day 1, p 0.001 each dose versus control): effective inhibition of tumor growth; also recorded: greater inhibition of tumor growth at the highest dose
antitumor activity, Walker 256, subsequent report ([5]; 400 mg/kg): inactive
antitumor activity, Walker 256 ([5]; 300 and 500 mg/kg body weight): dose-dependent activity
IC50 (MEL-2 (melanoma); Homo sapiens, MEL2, 72 h, three days incubation, SRB, Table 1 and text, read-out: ED50 MEL-2): ~2 µg/mL (≈ 4.38 µM)
ED50 (Std. Dev.) MEL-2 (MEL-2 (melanoma); derivatives, Tables 2-6): 1.2 (0.1) μg/mL
ED50 MEL-2 (MEL-2 (melanoma); three days incubation, SRB, Table 1 and text, listed as Betulinic acid): 2.0 µg/mL (≈ 4.38 µM)
tumor growth, established MEL-2 tumors (FIG. 2) [6]: successfully abrogated tumor growth; also recorded: significantly less than that observed in the DTIC-treated animals
formation of the 50 Kbp fragment in human lymphocytes (human lymphocytes): did not demonstrate formation of the 50 Kbp fragment
